Tests used:
Assay type in all cases: biochemical
JAK1-JH1JH2 = JAK1-JH1JH2 (Homo sapiens (Human), UniProt P23458); assay: Enzymatic inhibition assay (RapidFire HTMS), JAK1; conditions: 12.5 μM ATP, 200 μM substrate; read-out: JAK1-JH2JH1 IC50
Excerpt: (§1) LC/MS grade Water and Acetonitrile (ACN), were purchased from HoneyWell, Burdick & Jackson (Muskegon, Mich., USA). Dimethylsulfoxide 99.8% (DMSO) and Trifluoroacetic Acid 99.5% (TFA) were purchased from EMD Chemical (Gibbstown, N.J., USA). Adenosine triphosphate (ATP), 4-Morpholinepropanesulfonic acid (MOPS), Magnesium chloride (MgCl2), ethylenediaminetetraacetic acid (EDTA), dithiothreitol (DTT), formic acid >95% (FA) and Tween-20 were purchased from Sigma (St Louis, Mo., USA). 384-well polypropylene plates, Cat #781280 were purchased from Greiner (Monroe, N.C.), RapidFire™ cartridge A C4 Column (Agilent Technologies, Santa Clara, Calif.).
(§2) The HTMS experiments were performed in positive ionization mode on a RapidFire 300 instrument (Agilent Technologies, Santa Clara, Calif.), coupled with an ABSiex QTrap 4000 system with an Electrospray Ionization source (RF-MS) (Concord, ON, Canada). […] The entire system was operated using the RapidFire software interfaced with Analyst software for the mass spectrometer.
(§3) 11-point dosing series were made for each compound by serially diluting 1:3 or 1:4 in DMSO, with point 12 being a DMSO control. From the serial dilution plates, sample was transferred to a 384 wells assay plate (#781280, Greiner, Monroe, N.C.) using Labcyte Echo (Sunnyvale, Calif.), or Biosero ATS (San Diego, Calif.). The compounds were tested in duplicate. Column 12 was used for positive controls, and column 24 contained negative controls with no enzyme added. A compound from our internal collection, with inhibitory activity for JAK isoforms, was used as a reference compound. The final concentration of DMSO was ≤0.25% in a 20 μL reaction. […] The Tyk2 enzyme was pre-incubated with 2 mM ATP for 30 min prior to the reaction initiation. Immediately after the addition of the enzyme to the reaction mixture, the plate was centrifuged at 1000 rpm for 1 minute and incubated at 25° C. for 45 minutes for JAK 3 and 90 minutes for JAK1, JAK2 and Tyk2. The reaction was quenched by the addition of 20 μL of 0.5% TFA containing 0.15 μM of internal standard peptide using Multidrop Combi reagent dispenser (Thermo Scientific, Waltham, Mass.). […] After the quench, the assay plate was centrifuged at 3000 rpm for 3 minutes and sealed with pierceable aluminum foil (Cat #06644-001, Agilent) using a PlateLoc (Agilent Technologies, Santa Clara, Calif.). The plates then were transferred on to the RapidFire for the MS analysis. Compound inhibition was assessed by a decrease of the phosphorylated product levels in sample wells compared to the non-inhibited enzyme reaction.
(§4) The sample analysis on the RapidFire was performed using a mobile phase A consisting of Water/TFA/FA (100:0.01:0.1, v/v/v), a mobile phase B consisting of ACN/Water/TFA/FA (80:20:0.01:0.1, v/v/v). […] The samples were aspirated directly from the 384 assay plate and delivered onto RF-MS microscale solid-phase C4 extraction cartridge (Type A). The undesired component such as salt, cofactor, detergent and large protein were washed out and the retained analytes (substrate, product and IS) were coeluted directly onto the ABSiex Qtrap 4000 system.

JAK3-JH1JH2 = JAK3-JH1JH2 (Homo sapiens (Human), UniProt P52333); assay: Enzymatic inhibition assay (RapidFire HTMS), JAK3; conditions: 150 μM ATP, 40 μM substrate
Chain of JAK3-JH1JH2 (P52333 512-1124): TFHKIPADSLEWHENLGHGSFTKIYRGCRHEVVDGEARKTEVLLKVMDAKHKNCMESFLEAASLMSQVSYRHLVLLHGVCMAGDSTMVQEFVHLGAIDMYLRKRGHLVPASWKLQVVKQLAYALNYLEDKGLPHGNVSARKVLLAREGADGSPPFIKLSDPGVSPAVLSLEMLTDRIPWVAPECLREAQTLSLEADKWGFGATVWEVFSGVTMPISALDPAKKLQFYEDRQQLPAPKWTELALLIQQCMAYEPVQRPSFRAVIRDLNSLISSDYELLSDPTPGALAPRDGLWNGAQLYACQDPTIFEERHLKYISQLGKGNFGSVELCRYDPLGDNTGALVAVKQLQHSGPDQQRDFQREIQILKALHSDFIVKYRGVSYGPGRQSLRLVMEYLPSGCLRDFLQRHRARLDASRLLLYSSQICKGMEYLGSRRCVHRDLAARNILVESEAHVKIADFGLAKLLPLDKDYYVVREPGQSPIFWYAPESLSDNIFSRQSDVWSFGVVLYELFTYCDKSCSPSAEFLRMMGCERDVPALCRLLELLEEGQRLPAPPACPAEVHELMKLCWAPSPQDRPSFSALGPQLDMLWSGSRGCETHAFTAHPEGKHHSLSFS
Excerpt: as §1, §2
as §3, with “compound.” for “compound. The final concentration of DMSO was ≤0.25% in a 20 μL reaction.”
as §4

JAK2-JH1JH2 = JAK2-JH1JH2 (Homo sapiens (Human), UniProt O60674); assay: Enzymatic inhibition assay (RapidFire HTMS), JAK2; conditions: 30 μM ATP, 40 μM substrate
Chain of JAK2-JH1JH2 (O60674 532-1132): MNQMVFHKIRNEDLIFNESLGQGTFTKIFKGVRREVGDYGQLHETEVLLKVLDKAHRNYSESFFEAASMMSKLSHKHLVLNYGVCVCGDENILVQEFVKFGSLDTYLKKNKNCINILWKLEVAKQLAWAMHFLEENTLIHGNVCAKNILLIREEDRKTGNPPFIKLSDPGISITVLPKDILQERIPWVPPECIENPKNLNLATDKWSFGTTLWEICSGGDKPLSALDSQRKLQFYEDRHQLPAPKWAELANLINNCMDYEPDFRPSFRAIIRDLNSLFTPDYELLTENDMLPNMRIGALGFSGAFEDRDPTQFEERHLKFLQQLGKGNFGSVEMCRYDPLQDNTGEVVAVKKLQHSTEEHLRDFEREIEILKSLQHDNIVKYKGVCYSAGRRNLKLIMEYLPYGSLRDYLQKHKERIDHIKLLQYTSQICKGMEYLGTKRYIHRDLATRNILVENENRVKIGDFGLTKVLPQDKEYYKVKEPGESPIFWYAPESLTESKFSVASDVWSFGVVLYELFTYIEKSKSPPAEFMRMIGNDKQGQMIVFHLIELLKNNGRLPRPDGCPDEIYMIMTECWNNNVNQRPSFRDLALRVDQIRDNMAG
Excerpt: as §1, §2, §3, §4

Tyk2-JH1JH2 = Tyk2-JH1JH2 (Homo sapiens (Human), UniProt P29597, C1142A/C936A); assay: Enzymatic inhibition assay (RapidFire HTMS), Tyk2; conditions: 50 μM ATP, 200 μM substrate
Chain of Tyk2-JH1JH2 (P29597 580-1182 C936A/C1142A): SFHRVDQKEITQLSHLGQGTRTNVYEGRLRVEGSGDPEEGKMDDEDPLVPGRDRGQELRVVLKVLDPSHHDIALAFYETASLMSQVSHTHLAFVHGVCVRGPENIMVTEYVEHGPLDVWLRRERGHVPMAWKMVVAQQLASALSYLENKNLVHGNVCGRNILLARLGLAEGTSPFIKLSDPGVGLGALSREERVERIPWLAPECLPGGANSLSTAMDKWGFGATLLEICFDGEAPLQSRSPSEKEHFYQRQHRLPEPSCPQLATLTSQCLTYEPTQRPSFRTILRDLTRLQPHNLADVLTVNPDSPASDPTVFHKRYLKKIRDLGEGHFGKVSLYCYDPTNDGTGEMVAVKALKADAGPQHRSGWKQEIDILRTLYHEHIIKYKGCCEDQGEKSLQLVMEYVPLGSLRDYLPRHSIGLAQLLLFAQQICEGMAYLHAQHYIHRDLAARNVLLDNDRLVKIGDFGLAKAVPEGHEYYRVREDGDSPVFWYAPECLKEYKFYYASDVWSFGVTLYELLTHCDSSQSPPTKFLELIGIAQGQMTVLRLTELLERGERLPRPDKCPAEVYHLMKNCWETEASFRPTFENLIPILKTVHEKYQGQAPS
Excerpt: as §1, §2, §3, §4

Chain of JAK1-JH1JH2 (P23458 574-1154): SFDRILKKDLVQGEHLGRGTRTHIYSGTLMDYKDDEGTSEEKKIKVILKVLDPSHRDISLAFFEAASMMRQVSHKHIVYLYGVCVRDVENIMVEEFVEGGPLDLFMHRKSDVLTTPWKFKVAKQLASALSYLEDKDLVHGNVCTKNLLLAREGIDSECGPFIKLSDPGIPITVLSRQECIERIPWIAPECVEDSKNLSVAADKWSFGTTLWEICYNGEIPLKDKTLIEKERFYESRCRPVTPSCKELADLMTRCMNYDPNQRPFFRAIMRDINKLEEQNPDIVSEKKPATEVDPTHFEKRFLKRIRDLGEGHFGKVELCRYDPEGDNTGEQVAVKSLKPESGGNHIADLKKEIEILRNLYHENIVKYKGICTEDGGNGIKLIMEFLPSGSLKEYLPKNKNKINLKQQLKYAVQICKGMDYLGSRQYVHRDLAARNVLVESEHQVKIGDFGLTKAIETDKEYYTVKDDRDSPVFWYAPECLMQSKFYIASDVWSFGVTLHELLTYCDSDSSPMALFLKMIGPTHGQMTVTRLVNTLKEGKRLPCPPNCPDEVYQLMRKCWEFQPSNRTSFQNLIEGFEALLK

| Compound | IC50 (JAK1-JH1JH2) | IC50 (JAK3-JH1JH2) | IC50 (JAK2-JH1JH2) | IC50 (Tyk2-JH1JH2) |
| --- | --- | --- | --- | --- |
| CC(C)NC(=O)c1nc2cnc3[nH]ccc3c2n1[C@H]1CC[C@H](CC#N)CC1 [Ex. 172, 1-((1r,4r)-4-(Cyanomethyl)cyclohexyl)-N-isopropyl-1,6-dihydroimidazo[4,5-d]pyrrolo[2,3-b]pyridine-2-carboxamide] | 2.1 nM | 3060 nM | 75.2 nM | 53.5 nM |
| CC(C)(C)OCc1nc2cnc3[nH]ccc3c2n1[C@H]1CC[C@H](CC#N)CC1 [Ex. 202, 2-((1r,4r)-4-(2-(tert-Butoxymethyl)imidazo[4,5-d]pyrrolo[2,3-b]pyridin-1(6H)-yl)cyclohexyl)acetonitrile] | 5 nM | 1040 nM | 50.9 nM | 50.9 nM |
| CC(C)(O)Cn1cc(-c2nc3cnc4[nH]ccc4c3n2[C@H]2CC[C@H](CC#N)CC2)cn1 [Ex. 187, 2-((1r,4r)-4-(2-(1-(2-Hydroxy-2-methylpropyl)-1H-pyrazol-4-yl)imidazo[4,5-d]pyrrolo[2,3-b]pyridin-1(6H)-yl)cyclohexyl)acetonitrile] | 1.3 nM | 180 nM | 24.6 nM | 60 nM |
| N#CC[C@H]1CC[C@H](n2c(-c3ccc(S(F)(F)(F)(F)F)cc3)nc3cnc4[nH]ccc4c32)CC1 [Ex. 143, 2-((1r,4r)-4-(2-(4-(Pentafluoro-λ^6-sulfanyl)phenyl)imidazo[4,5-d]pyrrolo[2,3-b]pyridin-1(6H)-yl)cyclohexyl)acetonitrile] | 0.9 nM | 1270 nM | 38.5 nM | 117 nM |
| CC(=O)N1CC(c2nc3cnc4[nH]ccc4c3n2[C@H]2CC[C@H](CC#N)CC2)C1 [Ex. 147, 2-((1r,4r)-4-(2-(1-Acetylazetidin-3-yl)imidazo[4,5-d]pyrrolo[2,3-b]pyridin-1(6H)-yl)cyclohexyl)acetonitrile] | 1.1 nM | 1970 nM | 315 nM | 87.9 nM |
| Cc1cc(-c2nc3cnc4[nH]ccc4c3n2[C@H]2CC[C@H](CC#N)CC2)[nH]n1 [Ex. 81, 2-((1r,4r)-4-(2-(3-Methyl-1H-pyrazol-5-yl)imidazo[4,5-d]pyrrolo[2,3-b]pyridin-1(6H)-yl)cyclohexyl)acetonitrile] | 0.4 nM | 117 nM | 3.7 nM | 6 nM |
| N#CC[C@H]1CC[C@H](n2c(C3NC(C4CC4)=NO3)nc3cnc4[nH]ccc4c32)CC1 (some centres unmarked) [Ex. 140, 2-((1r,4r)-4-(2-(3-Cyclopropyl-4,5-dihydro-1,2,4-oxadiazol-5-yl)imidazo[4,5-d]pyrrolo[2,3-b]pyridin-1(6H)-yl)cyclohexyl)acetonitrile] | 0.9 nM | 56.8 nM | 4.5 nM | 14.9 nM |
| COCCNC(=O)OCc1nc2cnc3[nH]ccc3c2n1[C@H]1CC[C@H](CC#N)CC1 [Ex. 161, (1-((1r,4r)-4-(Cyanomethyl)cyclohexyl)-1,6-dihydroimidazo[4,5-d]pyrrolo[2,3-b]pyridin-2-yl)methyl (2-methoxyethyl)carbamate] | 1.6 nM | 260 nM | 20 nM | 20 nM |
| N#CC[C@H]1CC[C@H](n2c(CNC(=O)C3CCCCC3)nc3cnc4[nH]ccc4c32)CC1 [Ex. 139, N-((1-((1r,4r)-4-(Cyanomethyl)cyclohexyl)-1,6-dihydroimidazo[4,5-d]pyrrolo[2,3-b]pyridin-2-yl)methyl)cyclohexanecarboxamide] | 0.9 nM | 746 nM | 66.9 nM | 53.5 nM |
| N#CC[C@H]1CC[C@H](n2c(CN/C(=N\O)C3CC3)nc3cnc4[nH]ccc4c32)CC1 [Ex. 110, (EZ)—N-((1-((1r,4r)-4-(Cyanomethyl)cyclohexyl)-1,6-dihydroimidazo[4,5-d]pyrrolo[2,3-b]pyridin-2-yl)methyl)-N′-hydroxycyclopropanecarboximidamide] | 0.6 nM | 416 nM | 29 nM | 17.4 nM |
| CC(C)CN1CCC(NC(=O)Cc2nc3cnc4[nH]ccc4c3n2[C@H]2CC[C@H](CC#N)CC2)CC1 [Ex. 62, 2-(1-((1r,4r)-4-(Cyanomethyl)cyclohexyl)-1,6-dihydroimidazo[4,5-d]pyrrolo[2,3-b]pyridin-2-yl)-N-(1-isobutylpiperidin-4-yl)acetamide] | 0.3 nM | 30.6 nM | 2.1 nM | 2.6 nM |
| N#CC[C@H]1CC[C@H](n2c(COC(=O)Nc3ccccc3)nc3cnc4[nH]ccc4c32)CC1 [Ex. 109, (1-((1r,4r)-4-(Cyanomethyl)cyclohexyl)-1,6-dihydroimidazo[4,5-d]pyrrolo[2,3-b]pyridin-2-yl)methyl Phenylcarbamate] | 0.6 nM | 135 nM | 7.5 nM | 11.3 nM |
| N#CC[C@H]1CC[C@H](n2c(CC(=O)N3CCC(F)(F)CC3)nc3cnc4[nH]ccc4c32)CC1 [Ex. 107, 2-((1r,4r)-4-(2-(2-(4,4-Difluoropiperidin-1-yl)-2-oxoethyl)imidazo[4,5-d]pyrrolo[2,3-b]pyridin-1(6H)-yl)cyclohexyl)acetonitrile] | 0.6 nM | 142 nM | 18.2 nM | 5.1 nM |
| N#CC[C@H]1CC[C@H](n2c(CC(=O)N[C@H]3CC[C@@H](O)CC3)nc3cnc4[nH]ccc4c32)CC1 [Ex. 47, 2-(1-((1r,4r)-4-(Cyanomethyl)cyclohexyl)-1,6-dihydroimidazo[4,5-d]pyrrolo[2,3-b]pyridin-2-yl)-N-((1S,4S)-4-hydroxycyclohexyl)acetamide] | 0.2 nM | 38.9 nM | 2.3 nM | 5.1 nM |
| N#CC[C@H]1CC[C@H](n2c(CC(=O)N3CCC[C@@H]3CO)nc3cnc4[nH]ccc4c32)CC1 [Ex. 149, 2-((1r,4r)-4-(2-(2-((R)-2-(Hydroxymethyl)pyrrolidin-1-yl)-2-oxoethyl)imidazo[4,5-d]pyrrolo[2,3-b]pyridin-1(6H)-yl)cyclohexyl)acetonitrile] | 1.1 nM | 926 nM | 54.4 nM | 13.9 nM |
| N#CC[C@H]1CC[C@H](n2c(CO/N=C(\N)c3ccccc3)nc3cnc4[nH]ccc4c32)CC1 [Ex. 124, (Z*)—N-((1-((1r,4r)-4-(Cyanomethyl)cyclohexyl)-1,6-dihydroimidazo[4,5-d]pyrrolo[2,3-b]pyridin-2-yl)methoxy)benzimidamide] | 0.7 nM | 141 nM | 4.4 nM | 18.1 nM |
| N#CC[C@H]1CC[C@H](n2c(C(=O)NCC3CC3)nc3cnc4[nH]ccc4c32)CC1 [Ex. 174, 1-((1r,4r)-4-(cyanomethyl)cyclohexyl)-N-(cyclopropylmethyl)-1,6-dihydroimidazo[4,5-d]pyrrolo[2,3-b]pyridine-2-carboxamide] | 2.2 nM | 604 nM | 57.2 nM | 55.2 nM |

— patent US10981911B2, “Imidazopyrrolopyridine as inhibitors of the JAK family of kinases” (Janssen Pharmaceutica NV, priority 2016, dated 2021)
